Test results taken from ChEMBL document CHEMBL4616726, “Optimization of the Linker Domain in a Dimeric Compound that Degrades an r(CUG) Repeat Expansion in Cells” (J Med Chem, 2020).
Each block holds one compound with its values, some of them ahead of it. Active and inactive are the calls of the source. The rule behind the calls is not given here.

Experiments:
[1] = Drug localization in cytoplasm of human DM1-patient derived myotubes by live-cell fluorescence microscopy; format: ADME, subcellular
[2] = test system: r(CUG) repeat expansion; assay: Induction of 5'-biotinylated r(CUG)12 RNA repeat (unknown origin) degradation assessed as disruption of r(CUG)12-MBNL1 complex formation incubated for 15 mins by TR-FRET assay; format: nucleic-acid assay
[3] = Drug localization in nucleus of human DM1-patient derived myotubes by live-cell fluorescence microscopy; format: ADME, subcellular
[4] = test system: r(CUG) repeat expansion; assay: Induction of r(CUG)exp RNA repeat in human DM1-patient derived myotubes assessed as improvement in MBNL1 exon 5 splicing defect at 5 uM by RT-qPCR analysis relative to control; format: nucleic-acid assay
[5] = target: r(CUG) repeat expansion; assay: Binding affinity to r(CUG)8 RNA repeat (unknown origin) by fluorescence based assay; format: nucleic-acid assay
[6] = test system: r(CUG) repeat expansion; assay: Induction of r(CUG)exp RNA repeat in human DM1-patient derived myotubes assessed as reduction in number of foci containing r(CUG)exp-MBNL1 foci at 5 uM by RNA fluorescence in situ hybridization assay; format: nucleic-acid assay
[7] = target: r(CUG) repeat expansion; assay: Binding affinity to r(CUG)12 RNA repeat (unknown origin) by fluorescence based assay; format: nucleic-acid assay
[8] = test system: r(CUG) repeat expansion; assay: Induction of r(CUG)exp RNA repeat in human DM1-patient derived myotubes assessed as reduction in number of foci containing r(CUG)exp-MBNL1 foci at 5 uM by immunofluorescence assay; format: nucleic-acid assay
[9] = Drug uptake in human DM1-patient derived myotubes by fluorescence based assay; format: ADME; conditions: in vitro
[10] = test system: r(CUG) repeat expansion; assay: Induction of r(CUG)exp RNA repeat in human DM1-patient derived myotubes assessed as improvement in MBNL1 exon 5 splicing defect by RT-qPCR analysis; format: nucleic-acid assay
[11] = test system: r(CUG) repeat expansion; assay: Induction of SCUBE2 r(CUG)7 RNA repeat degradation in human DM1 patient myotubes at 1 uM by RT-qPCR analysis relative to control; format: nucleic-acid assay
[12] = test system: r(CUG) repeat expansion; assay: Induction of DMPK mRNA 3'-UTR r(CUG)1300 repeat degradation in human DM1 patient-derived myotubes at 1 uM by RT-qPCR analysis relative to control; format: nucleic-acid assay
[13] = test system: r(CUG) repeat expansion; assay: Induction of CASK r(CUG)16 RNA repeat degradation in human DM1 patient myotubes at 1 uM by RT-qPCR analysis relative to control; format: nucleic-acid assay
[14] = test system: r(CUG) repeat expansion; assay: Induction of SORCS2 r(CUG)7 RNA repeat degradation in human DM1 patient myotubes at 1 uM by RT-qPCR analysis relative to control; format: nucleic-acid assay
[15] = organism: Homo sapiens; assay: Effect on MBNL1 exon 5 splicing patterns in wild type human myotubes at 5 uM by RT-qPCR analysis relative to control; format: functional
[16] = test system: r(CUG) repeat expansion; assay: Induction of r(CUG)10 RNA repeat (unknown origin) degradation at 2.5 uM relative to control; format: nucleic-acid assay
[17] = test system: r(CUG) repeat expansion; assay: Induction of r(CUG)exp RNA repeat in human DM1-patient derived myotubes assessed as reduction in number of foci containing r(CUG)exp-MBNL1 foci at 1 uM by RNA fluorescence in situ hybridization assay; format: nucleic-acid assay
[18] = test system: r(CUG) repeat expansion; assay: Induction of wild-type DMPK r(CUG)20 RNA repeat degradation in human DM1 patient myotubes at 1 uM by RT-qPCR analysis relative to control; format: nucleic-acid assay
[19] = organism: Homo sapiens; assay: Induction of DNA damage in human DM1-patient derived myotubes at 1 uM assessed as induction of DNA double strand breaks by measuring gamma-H2AX foci formation by immunofluorescence assay relative to control; format: functional
[20] = test system: r(CUG) repeat expansion; assay: Induction of LRP8 r(CUG)11 RNA repeat degradation in human DM1 patient myotubes at 1 uM by RT-qPCR analysis relative to control; format: nucleic-acid assay
[21] = test system: r(CUG) repeat expansion; assay: Induction of DMPK mRNA 3'-UTR r(CUG)1300 repeat degradation in human DM1 patient-derived myotubes at 5 uM by RT-qPCR analysis relative to control; format: nucleic-acid assay
[22] = test system: r(CUG) repeat expansion; assay: Induction of wild-type DMPK r(CUG)20 RNA repeat degradation in healthy human myotubes at 5 uM by RT-qPCR analysis relative to control; format: nucleic-acid assay
[23] = test system: r(CUG) repeat expansion; assay: Induction of r(CUG)exp RNA repeat in human DM1-patient derived myotubes assessed as improvement in MBNL1 exon 5 splicing defect at 1 uM by RT-qPCR analysis relative to control; format: nucleic-acid assay
[24] = test system: r(CUG) repeat expansion; assay: Induction of MAP3K4 r(CUG)11 RNA repeat degradation in human DM1 patient myotubes at 1 uM by RT-qPCR analysis relative to control; format: nucleic-acid assay
[25] = test system: r(CUG) repeat expansion; assay: Induction of r(CUG)10 RNA repeat (unknown origin) degradation at 0.3 to 2.5 uM; format: nucleic-acid assay
[26] = organism: Homo sapiens; assay: Effect on alternative splicing of MAP4K4 exon 22a in human DM1-patient derived myotubes at 5 uM by RT-qPCR analysis relative to control; format: functional
[27] = test system: r(CUG) repeat expansion; assay: Induction of r(CUG)exp RNA repeat in human DM1-patient derived myotubes assessed as improvement in MBNL1 exon 5 splicing defect at 0.2 to 5 uM by RT-qPCR analysis relative to control; format: nucleic-acid assay
[28] = test system: r(CUG) repeat expansion; assay: Induction of DMPK mRNA 3'-UTR r(CUG)1300 repeat degradation in human DM1 patient-derived myotubes at 0.2 to 5 uM by RT-qPCR analysis relative to control; format: nucleic-acid assay

Compound: C[C@@H](NC(=O)CCCOc1cccc(-c2nc3ccc(-c4nc5ccc(N6CCN(C)CC6)cc5[nH]4)cc3[nH]2)c1)C(=O)N[C@H](C)C(=O)N[C@H](C)C(=O)N[C@H](C)C(=O)N(CCCCN(C)C(=O)CCCOc1cccc(-c2nc3cc(-c4nc5cc(N6CCN(C)CC6)ccc5[nH]4)ccc3[nH]2)c1)CC(N)=O
Drug uptake [1]: Active
Activity [2]: Active
Drug uptake [3]: Active
Activity [4]: inactive

Compound: CN1CCN(c2ccc3[nH]c(-c4ccc5[nH]c(-c6cccc(OCCCC(=O)N(C)CCCCN(CC(N)=O)C(=O)[C@@H]7CCCN7C(=O)[C@@H]7CCCN7C(=O)CCCOc7cccc(-c8nc9ccc(-c%10nc%11ccc(N%12CCN(C)CC%12)cc%11[nH]%10)cc9[nH]8)c7)c6)nc5c4)nc3c2)CC1
Drug uptake [1]: Active
EC50 [5]: > 10000 nM
Activity [6]: Active
IC50 [2]: 5300 nM
Drug uptake [3]: Active
EC50 [7]: 150 nM
Activity [8]: Active
Activity [4]: 30%
Drug uptake [9]: Active
Activity [10]: Dose-dependent effect

Compound: Cc1c(N)nc([C@@H](CC(N)=O)NC[C@@H](N)C(N)=O)nc1C(=O)N[C@@H](C(=O)N[C@@H](C)[C@H](O)[C@@H](C)C(=O)N[C@H](C(=O)NCCc1nc(-c2nc(C(=O)NCCCNCCCCNC(=O)CN(CCCCN(C)C(=O)CCCOc3cccc(-c4nc5cc(-c6nc7cc(N8CCN(C)CC8)ccc7[nH]6)ccc5[nH]4)c3)C(=O)[C@H]3CCCN3C(=O)[C@H]3CCCN3C(=O)CCCOc3cccc(-c4nc5ccc(-c6nc7ccc(N8CCN(C)CC8)cc7[nH]6)cc5[nH]4)c3)cs2)cs1)[C@H](C)O)[C@H](O[C@@H]1O[C@@H](CO)[C@@H](O)[C@@H](O)[C@@H]1O[C@H]1O[C@H](CO)[C@@H](O)[C@H](OC(N)=O)[C@H]1O)c1cnc[nH]1
Activity [11]: inactive
Activity [12]: Active
Activity [13]: inactive
Activity [14]: inactive
EC50 [5]: > 10000 nM
Activity [15]: inactive
Activity [16]: 20%
Activity [17]: Active
Activity [18]: inactive
Activity [19]: inactive
Activity [20]: inactive
Activity [21]: 45%
Activity [22]: inactive
EC50 [7]: 280 nM
Activity [4]: 50%
Activity [23]: 30%
Drug uptake [9]: Active
Activity [24]: inactive
Activity [25]: Dose-dependent effect
Activity [26]: inactive

Compound: C[C@@H](C(=O)N(C)[C@@H](C)C(=O)N(C)[C@@H](C)C(=O)N(C)[C@@H](C)C(=O)N(CCCCN(C)C(=O)CCCOc1cccc(-c2nc3cc(-c4nc5cc(N6CCN(C)CC6)ccc5[nH]4)ccc3[nH]2)c1)CC(N)=O)N(C)C(=O)CCCOc1cccc(-c2nc3ccc(-c4nc5ccc(N6CCN(C)CC6)cc5[nH]4)cc3[nH]2)c1
EC50 [5]: > 10000 nM
Activity [6]: Active
Activity [2]: Active
Drug uptake [3]: Active
EC50 [7]: 280 nM
Activity [8]: Active
Activity [4]: 30%
Drug uptake [9]: Active

Compound: CN1CCN(c2ccc3[nH]c(-c4ccc5[nH]c(-c6cccc(OCCCC(=O)N(C)CCCCN(CC(N)=O)C(=O)[C@H](Cc7ccc(O)cc7)N(C)C(=O)[C@H](Cc7ccc(O)cc7)N(C)C(=O)[C@H](Cc7ccc(O)cc7)N(C)C(=O)[C@H](Cc7ccc(O)cc7)N(C)C(=O)CCCOc7cccc(-c8nc9ccc(-c%10nc%11ccc(N%12CCN(C)CC%12)cc%11[nH]%10)cc9[nH]8)c7)c6)nc5c4)nc3c2)CC1
Activity [2]: Active

Compound: CC(=O)N(C)CCCCN(CC(=O)NCCCCNCCCNC(=O)c1csc(-c2csc(CCNC(=O)[C@@H](NC(=O)[C@H](C)[C@@H](O)[C@H](C)NC(=O)[C@H](NC(=O)c3nc([C@@H](CC(N)=O)NC[C@@H](N)C(N)=O)nc(N)c3C)[C@H](O[C@@H]3O[C@@H](CO)[C@@H](O)[C@@H](O)[C@@H]3O[C@H]3O[C@H](CO)[C@@H](O)[C@H](OC(N)=O)[C@H]3O)c3cnc[nH]3)[C@H](C)O)n2)n1)C(=O)[C@H]1CCCN1C(=O)[C@H]1CCCN1C(C)=O
Activity [27]: inactive
Activity [16]: inactive
Activity [28]: inactive

Compound: CC(=O)O[C@H]1[C@H](O)[C@H](O[C@@H]2[C@H](O[C@H](c3cnc[nH]3)[C@@H](NC(=O)c3nc([C@@H](CC(N)=O)NC[C@@H](N)C(N)=O)nc(N)c3C)C(=O)N[C@@H](C)[C@H](O)[C@@H](C)C(=O)N[C@H](C(=O)NCCc3nc(-c4nc(C(=O)NCCCNCCCCNC(=O)CCCCCCC(=O)N(CCN(C)C(=O)CCCOc5cccc(-c6nc7ccc(-c8nc9ccc(N%10CCN(C)CC%10)cc9[nH]8)cc7[nH]6)c5)CC(=O)N(C)[C@@H](C)C(=O)N(C)[C@@H](C)C(=O)N(C)[C@@H](C)C(=O)N(CCCCN(C)C(=O)CCCOc5cccc(-c6nc7ccc(-c8nc9ccc(N%10CCN(C)CC%10)cc9[nH]8)cc7[nH]6)c5)CC(N)=O)cs4)cs3)[C@H](C)O)O[C@@H](CO)[C@H](O)[C@H]2O)O[C@@H](CO)[C@@H]1O
Activity [21]: 30%

More lines, now with the values ahead:

Activity [2]: Active
Compound: CN1CCN(c2ccc3[nH]c(-c4ccc5[nH]c(-c6cccc(OCCCC(=O)N(C)CCCCN(CC(N)=O)C(=O)[C@@H]7CCCN7C(=O)[C@@H]7CCCN7C(=O)[C@@H]7CCCN7C(=O)[C@@H]7CCCN7C(=O)[C@@H]7CCCN7C(=O)CCCOc7cccc(-c8nc9cc(-c%10nc%11cc(N%12CCN(C)CC%12)ccc%11[nH]%10)ccc9[nH]8)c7)c6)nc5c4)nc3c2)CC1

Activity [2]: Active
Compound: CN1CCN(c2ccc3[nH]c(-c4ccc5[nH]c(-c6cccc(OCCCC(=O)N(C)CCCCN(CC(N)=O)C(=O)[C@@H]7CCCN7C(=O)[C@@H]7CCCN7C(=O)[C@@H]7CCCN7C(=O)[C@@H]7CCCN7C(=O)CCCOc7cccc(-c8nc9ccc(-c%10nc%11ccc(N%12CCN(C)CC%12)cc%11[nH]%10)cc9[nH]8)c7)c6)nc5c4)nc3c2)CC1

Drug uptake [1]: Active
Activity [2]: Active
Activity [4]: inactive
Drug uptake [9]: Active
Compound: CN1CCN(c2ccc3[nH]c(-c4ccc5[nH]c(-c6cccc(OCCCC(=O)N(C)CCCCN(CC(N)=O)C(=O)[C@@H]7C[C@@H](O)CN7C(=O)[C@@H]7C[C@@H](O)CN7C(=O)[C@@H]7C[C@@H](O)CN7C(=O)[C@@H]7C[C@@H](O)CN7C(=O)CCCOc7cccc(-c8nc9ccc(-c%10nc%11ccc(N%12CCN(C)CC%12)cc%11[nH]%10)cc9[nH]8)c7)c6)nc5c4)nc3c2)CC1

Activity [2]: Active
Compound: CN1CCN(c2ccc3[nH]c(-c4ccc5[nH]c(-c6cccc(OCCCC(=O)N(C)CCCCN(CC(N)=O)C(=O)[C@@H]7CCCN7C(=O)[C@@H]7CCCN7C(=O)[C@@H]7CCCN7C(=O)CCCOc7cccc(-c8nc9cc(-c%10nc%11cc(N%12CCN(C)CC%12)ccc%11[nH]%10)ccc9[nH]8)c7)c6)nc5c4)nc3c2)CC1
